Like-named read-outs stand apart in the source and are kept apart here.
System: cholesterol oxidase
Assay type: biochemical
Settings: for effect of the chemical substance on the activity of the cholesterol oxidase (toxicity), curve compared with curve 22: 1 mU/ml cholesterol oxidase, pH 7.45
[1] = 10 micro-M substance, film 70 mol % L-α-dimyristylphosphatizircoline / 30 mol % cholesterol

Method: Any chemical substrance to be evaluated on the toxicity is previously dissolved or dispersed in the cholesterol oxidase solution 12. A monomolecule film is formed on a surface of the cholesterol oxidase solution 12 by use of a monomolecule film development solution including any phospholipid and any sterol. The surface pressure of the monomolecule film is measured to find a rate in the increase of the surface pressure of the monomolecule film. […] The reduction in the activity of the cholesterol oxidase results in a reduction in the increasing rate of the surface pressure of the monomolecule film. […] This means that the toxicitic chemical substance would be present in the cholesterol oxidase solution.
As a cholesterol oxidase solution 12, there was used a buffer solution including N-2-hydroxyethylpiperzane-N'-2-ethane sulfuric acid, where the ion strength is 0.1 and pH value is 7.45 as well as 1 mU/ml of the cholesterol oxidase is dissolved in the buffer solution. […] As a monomolecule film development solution 13, there was used a monomolecule film development solution comprising 70 mol % of L-α-dimyristylphosphatizircoline and 30 mol % of cholesterol.
The increasing rate of the surface pressure of the monomolecule film depends upon file cholesterol oxidase activity. As described above, the activity of the cholesterol oxidase depends upon the rate of increase in the surface pressure of the monomolecule film.

## [Ca+2].[Cl-].[Cl-] [calcium chloride]
[1]
  effect of the chemical substance on the activity of the cholesterol oxidase (toxicity), curve compared with curve 22: no toxicity

## CC(=O)[O-].CC(=O)[O-].[Pb+2] [lead acetate]
[1]
  effect of the chemical substance on the activity of the cholesterol oxidase (toxicity), curve compared with curve 22: reduces the activity of the cholesterol oxidase
Cholesterol Oxidase 1 mU/ml, Lead Acetate 10 μ Mol, film 70 mol % L-α-dimyristylphosphatizircoline / 30 mol % cholesterol, five minutes after film was prepared, curve 23 (curve 22 without substance: 5.5 × 10^-2)
  Linear Differential Coefficient (rate of increase in the surface pressure of the monomolecule film): 4.2 × 10^-2 mN/mmin.

## [Cl][Hg][Cl] [mercury chloride]
10 micro-M substance, film 70 mol % L-α-dipalmytylphosphatizircoline / 30 mol % dihydrocholesterol
  effect of the chemical substance on the activity of the cholesterol oxidase (toxicity), curve compared with curve 22: reduces the activity of the cholesterol oxidase

## CCCCCCCCCCCCOS(=O)(=O)[O-].[Na+] [sodium dodecylsulfate]
1 micro-M substance, film 70 mol % L-α-di-palmytylphosphatizir-ethanol / 30 mol % pregnenolone
  effect of the chemical substance on the activity of the cholesterol oxidase (toxicity), curve compared with curve 22: reduces the activity of the cholesterol oxidase

## [Cl-].[Cl-].[Zn+2] [zinc chloride]
[1]
  effect of the chemical substance on the activity of the cholesterol oxidase (toxicity), curve compared with curve 22: reduces the activity of the cholesterol oxidase

— patent publication US5736352A, “Method and apparatus for determination of the activity of cholesterol oxidase and method and apparatus for evaluation of the toxicity of chemical substances” (priority 1995, dated 1998)
